Experimental findings from ChEMBL document CHEMBL3045687, “Anti-microbial benzimidazole derivatives: synthesis and in vitro biological evaluation” (2012) are described below.

What all share (format): functional
One test relates to Candida albicans. Briefly: Antimicrobial activity against Candida albicans assessed as zone of inhibition at 25 ug/ml after 48 hr by two-fold dilution technique relative to control.
The next test has as its system Escherichia coli. Briefly: Antimicrobial activity against Escherichia coli assessed as zone of inhibition at 12.5 ug/ml after 18 to 24 hr by two-fold dilution technique relative to control.
The test system of a further test is Staphylococcus aureus. Kind of test: Antimicrobial activity against Staphylococcus aureus assessed as zone of inhibition at 12.5 ug/ml after 18 to 24 hr by two-fold dilution technique relative to control.

The inhibition is how much of the control response was suppressed.

In the case of `COc1ccc(/C=C/c2nc3cc([N+](=O)[O-])ccc3[nH]2)c(OC)c1OC`, the inhibition at 25 µg/mL with Candida albicans was determined as 82.5%. The inhibition at 12.5 µg/mL in the test with Escherichia coli stood at 76.6%; with Staphylococcus aureus, 75.2%.

Consider `Oc1ccc(/C=C/c2nc3cc(Cl)ccc3[nH]2)cc1`, for which the inhibition at 25 µg/mL in the test on Candida albicans was 75.6%. For the same compound, the inhibition at 12.5 µg/mL is 79.9% with Escherichia coli and 70.8% with Staphylococcus aureus.

For `O=[N+]([O-])c1ccc2[nH]c(/C=C/c3ccc(Cl)cc3)nc2c1`, the inhibition at 25 µg/mL in the test with Candida albicans is 84.2%. The inhibition at 12.5 µg/mL in the test on Escherichia coli is 80.7%; in the test with Staphylococcus aureus, 82.1%.

For the compound `O=[N+]([O-])c1ccc2[nH]c(/C=C/c3ccc(O)cc3)nc2c1`, in the test on Candida albicans, the inhibition at 25 µg/mL amounted to 75%. For the same compound, the inhibition at 12.5 µg/mL in the test on Escherichia coli was determined as 76.9%; in the test on Staphylococcus aureus, 72.1%.

Turning to `OC(Cn1cncn1)(Cn1cncn1)c1ccc(F)cc1F` [FLUCONAZOLE], the zone of inhibition at 25 µg/mL in the test on Candida albicans (read-out: DIZ) turned out to be 13.4 mm.

Consider `O=[N+]([O-])c1ccc(/C=C/c2nc3cc([N+](=O)[O-])ccc3[nH]2)cc1`, for which, in the test on Candida albicans, the inhibition at 25 µg/mL stood at 75.3%. The values for the inhibition at 12.5 µg/mL in the test with Escherichia coli and with Staphylococcus aureus were 77.1% and 69.7%, respectively.

For `COc1ccc(/C=C/c2nc3cc(Cl)ccc3[nH]2)c(OC)c1OC`, in the test with Candida albicans, the inhibition at 25 µg/mL worked out at 93.1%. In addition, the values for the inhibition at 12.5 µg/mL in the test on Escherichia coli and in the test with Staphylococcus aureus were 80.5% and 72.7%, respectively.

On to `Clc1ccc2[nH]c(/C=C/c3ccccc3)nc2c1`, for which the inhibition at 25 µg/mL with Candida albicans was found to be 88.5%. Besides, the inhibition at 12.5 µg/mL in the test on Escherichia coli is 77.7%; in the test with Staphylococcus aureus, 76.2%.

Take `O=C(O)c1cn(C2CC2)c2cc(N3CCNCC3)c(F)cc2c1=O` [CIPROFLOXACIN]: the zone of inhibition at 12.5 µg/mL in the test on Escherichia coli (read-out: DIZ) came out at 15.9 mm; with Staphylococcus aureus (read-out: DIZ), 14.4 mm.

`COc1ccc(/C=C/c2nc3cc(Cl)ccc3[nH]2)cc1OC`: the inhibition at 25 µg/mL in the test with Candida albicans came out at 92.4%. Besides, the inhibition at 12.5 µg/mL in the test with Escherichia coli is 80.5%; in the test with Staphylococcus aureus it was 75.2%.
